# Test results taken from US20230324419A1, “METHOD FOR DIAGNOSING ACTING OF NERVONIC ACID AND USE THEREOF” (BAO FENG BIOTECH (BEIJING) CO., LTD, priority 2020, published 2023).
# Assays:
# [1] = Serum lipid content before and after taking acer truncatum bunge seed oil in patients with demyelinating disease; assay type: in vivo, human
# Description: For sample detection, sample pretreatment and ultra-high performance liquid chromatography-mass spectrometry in Example 1 were used. At the same time, standard SM(d17:1/24:1) and Cer(d18:1/24:1(15Z)) were used as reference for detection.
# [2] = Changes of serum lipids containing nervonic acid chains after taking acer truncatum bunge seed oil for different days; assay type: in vivo, SD rats; conditions: for blood levels after taking acer truncatum bunge seed oil compared with before taking: rat blood; for serum lipid content, Day 1 (NA1) / serum lipid content, Day 3 (NA3) / serum lipid content, Day 7 (NA7) / difference in content between the third and the seventh day of administration / content compared with the normal group: rat serum; for serum lipid content, Day 1 (NA1) / serum lipid content, Day 3 (NA3) / serum lipid content, Day 7 (NA7): acer truncatum bunge seed oil group, nervonic acid 0.03 g/kg/d by gavage; for difference in content between the third and the seventh day of administration: day 3 vs day 7; for content compared with the normal group: oil group vs normal control group; for NA7/NA1: ratio of serum content day 7 to day 1
# Experimental: The collected serum samples were thawed on ice, 200 µL plasma was extracted with 600 µL pre-cooled isopropanol, vortexed for 1 min, and incubated at room temperature for 10 min. Then the extraction mixture was stored overnight at -20° C., centrifuged at 4000r for 20 min, and the supernatant was transferred to a new centrifuge tube, diluted with isopropanol/acetonitrile/water (2:1:1, v:v:v) to 1:10. The samples were stored at -80° C. before LC-MS analysis. In addition, 10 µL of each extraction mixture was combined to prepare mixed plasma samples.
# The mixed plasma samples were analyzed using ACQUITY UPLC(Waters, USA) connected to the Xevo-G2XS High Resolution Time of Flight (QTOF) Mass spectrometer (Waters) with ESI. CQUITY UPLC BEH C18 column (2.1× 100 mm, 1.7 µm, Waters), and mobile phase consisted of 10 mM ammonium formate-0.1% formic acid-acetonitrile (A, 60: 40, v/v) and 10 mM ammonium formate-0.1% formic acid-isopropanol-acetonitrile (B, 90:10, v/v) were used. Pilot trials with 10-, 15-, and 20-minute washout periods were conducted prior to the large-scale study to assess the potential impact of mobile phase composition and flow rate on lipid retention time. In PIM, rich lipid precursor ions and fragments separated in the same order, with similar peak shapes and ionic strengths. […] The flow rate of mobile phase was 0.4 mL/min. The column was initially eluted with 40% B, 43% B in 2 min according to linear gradient, and 50% B within 0.1 min, 54%B in 3.9 minutes according to linear gradient, and 70% B within 0.1 min. In the last part of the gradient, the amount of B increased to 99% in 1.9 minutes. Finally, solution B was returned to 40% within 0.1 min and the column was balanced for 1.9 min before the next sample injection. The lipids were detected by Xevo-G2XS QTOF mass spectrometer with a sample size of 5 µL/time, collection range of m/z50~1200 […], and collection time of 0.2 s/time. The ion source temperature was 120° C., the desolutizing temperature was 600° C., the gas flow rate was 1000 L/h, and nitrogen was used as the flowing gas. The capillary voltage was 2.0 kV(+)/the […] was 1.5 kV(-), and the cone voltage was 30 V. A standard quality determination was carried out using leucine enkephalin and corrected with sodium formate solution. The samples were sorted randomly. A quality control (QC) sample was injected into every 10 samples and analyzed to investigate repeatability of the data.
# 50 male SD rats aged 5-6 weeks were randomly divided into 2 groups, which were acer truncatum bunge seed oil group (NA group) and normal control group (CK group). After 1 week of adaptive feeding, rats in each group entered into the experiment. Acer truncatum bunge seed oil group was administrated by gavage according to the content of nervonic acid 0.03 g/kg/d, once a day, and blood was collected after 1, 3 and 7 days. The normal control group was fed routinely, and the blood was collected at the same time as the acer truncatum bunge seed oil group for the detection of lipid SM(d17:1/24:1) and Cer(d18:1/24:1(15Z)) with the nervonic acid chain.
# [3] = human, once a day for one month; cited from earlier work
# [4] = after 1 day of taking the oil, individual patients
Molecule,serum lipid content relative to before taking acer truncatum bunge seed oil ([1]; after 7-day of taking the oil) [times],"serum lipid content relative to before taking acer truncatum bunge seed oil [1, 4] [times]",blood levels after taking acer truncatum bunge seed oil compared with before taking [2],"serum lipid content, Day 1 (NA1) [2]","serum lipid content, Day 3 (NA3) [2]","serum lipid content, Day 7 (NA7) [2]",difference in content between the third and the seventh day of administration [2],content compared with the normal group [2],NA7/NA1 [2],"test indexes (mind, picture, recognition, association, sence of touch, understanding) compared with the control group [3]"
CCCCCCCC/C=C\CCCCCCCCCCCCCC(=O)N[C@@H](CO)[C@H](O)/C=C/CCCCCCCCCCCCC [Cer(d18:1/24:1(15Z))],1.45,1.23,> 1.3 times,135883.1,209352.5,172840.3,no significant difference,increased,1.3,–
"CCCCCCCC/C=C\CCCCCCCCCCCCCC(=O)O [nervonic acid, cis-15-Tetracosenic acid]",–,–,–,–,–,–,–,–,–,significantly improved
SM(d17:1/24:1),1.22,1.15,more than 1.2 times,245574.2,340912.8,291861.8,no significant difference,increased,1.2,–
